Measurements from article PMC4415987 (Biomarkers : biochemical indicators of exposure, response, …, 2009).

How the values were obtained:
MAO-B = biological target: T1, MAO-B (Homo sapiens, UniProt P27338); assay: Platelet MAO-B activity; type: biochemical; conditions: human platelets in vitro; for LOAEL toward MAO-B: not modified by MeHg addition
T1 sequence (P27338 1-520): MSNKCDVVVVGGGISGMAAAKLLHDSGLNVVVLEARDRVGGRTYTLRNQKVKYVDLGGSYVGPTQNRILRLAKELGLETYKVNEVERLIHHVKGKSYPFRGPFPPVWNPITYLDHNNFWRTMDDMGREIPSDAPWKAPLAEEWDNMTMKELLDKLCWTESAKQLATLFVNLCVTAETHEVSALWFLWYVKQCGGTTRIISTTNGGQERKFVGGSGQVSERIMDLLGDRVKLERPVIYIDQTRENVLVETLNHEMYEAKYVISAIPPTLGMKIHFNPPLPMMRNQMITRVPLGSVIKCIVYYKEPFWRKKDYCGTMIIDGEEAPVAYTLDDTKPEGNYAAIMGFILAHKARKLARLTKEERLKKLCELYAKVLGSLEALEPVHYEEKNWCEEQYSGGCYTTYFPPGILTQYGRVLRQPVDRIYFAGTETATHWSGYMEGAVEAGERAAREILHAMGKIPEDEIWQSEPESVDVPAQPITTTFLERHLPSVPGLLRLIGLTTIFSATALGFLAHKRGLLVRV

lymphocyte mAChRs = type: binding, human; conditions: for LOAEL toward mAChRs: human lymphocytes in vitro, PCB values regardless of the presence of MeHg
[1] = weaning rats given 1 mg MeHg kg−1 daily perinatally, cited from earlier work

Row | Structure (SMILES) | LOAEL toward MAO-B (MAO-B) [µM] | LOAEL toward mAChRs (lymphocyte mAChRs) [µM] | also measured
1 | Oc1c(Cl)cc(-c2ccc(Cl)c(Cl)c2)c(Cl)c1Cl [4-OH-PCB-107] | 10 | 1 | 
2 | [CH3][Hg][Cl] [MeHg, methylmercury] |  | 1 | inhibitory effect on MAO-B activity (MAO-B; MeHg up to 1 mM): negligible; IC50 (lymphocyte mAChRs; read-out: IC50, inhibition of [3H]QNB binding to lymphocyte mAChRs): 5 ± 0.9 µM; Hg concentration in the blood ([1]; ref Coccini et al. 2007a): 1.3 ± 0.4 µg/mL; Hg concentration in the brain ([1]; ref Coccini et al. 2007b): 1.5–2.8 ppm
3 | Clc1ccc(-c2ccc(Cl)cc2Cl)cc1 [PCB-28] | 10 | 1 | 
4 | Clc1ccc(-c2ccc(Cl)c(Cl)c2)cc1Cl [PCB-77] | 10 | 0.1 | 
5 | Clc1ccc(-c2ccc(Cl)c(Cl)c2Cl)cc1Cl [PCB-105] | 1 | 1 | 
6 | Clc1ccc(-c2cc(Cl)c(Cl)cc2Cl)cc1Cl [PCB-118] | 10 | 1 | 
7 | Clc1cc(Cl)c(-c2cc(Cl)c(Cl)cc2Cl)cc1Cl [PCB-153, 2,2′,4,4′,5,5′-hexachlorobiphenyl] |  | 1 | IC50, MAO-B activity (MAO-B; in the presence or absence of 1 mM MeHg): No effect
